Results published in US10350170B2, “Solid preparation” (Takeda Pharmaceutical Company Limited, priority 2015, dated 2019).

Experiment: Stability of compound A alone in a solid state to temperature, humidity
Assay type: physicochemical

CONC(=O)Nc1ccc(-c2sc3c(c2CN(C)C)c(=O)n(-c2ccc(OC)nn2)c(=O)n3Cc2c(F)cccc2F)cc1 [compound A, N-(4-(1-(2,6-difluorobenzyl)-5-((dimethylamino)methyl)-3-(6-methoxy-3-pyridazinyl)-2,4-dioxo-1,2,3,4-tetrahydrothieno[2,3-d]pyrimidin-6-yl)phenyl)-N′-methoxyurea]
stability to temperature, humidity and the like: stable
